This note sets out measurements from US20210198277A1, “AMINE-SUBSTITUTED ARYL OR HETEROARYL COMPOUNDS” (Epizyme, Inc., priority 2016, published 2021).

A value given as a limit tells only on which side of the number the result lay.

The target in this assay is T1, human EHMT2 913-1193 (Homo sapiens, UniProt Q96KQ7).
T1 construct: recombinant purified human EHMT2 913-1193, Viva; purchased Viva
T1 sequence (Q96KQ7 913-1193): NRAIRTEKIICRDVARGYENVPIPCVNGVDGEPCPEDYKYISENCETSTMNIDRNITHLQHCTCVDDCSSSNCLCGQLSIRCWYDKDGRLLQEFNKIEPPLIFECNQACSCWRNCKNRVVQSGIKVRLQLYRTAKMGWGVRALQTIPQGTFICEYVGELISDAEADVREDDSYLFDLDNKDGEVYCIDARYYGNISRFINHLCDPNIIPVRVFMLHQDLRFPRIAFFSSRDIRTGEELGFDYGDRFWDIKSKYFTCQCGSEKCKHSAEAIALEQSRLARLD
Put plainly: EHMT2 enzyme assay on histone peptide substrate (EHMT2 PEP). Format: biochemical. The following applies: Table VI; read-out: EHMT2 PEP IC50. In short, it runs like this: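 Radiometric methyltransferase read-out: ^3H-methyl transfer from ^3H-SAM onto biotinylated histone peptide, captured on streptavidin Flashplates after 60 min reaction at room temperature. Enzyme 0.031 nM, preincubated 30 min with inhibitor; buffer 20 mM Bicine pH 7.5 with 1 mM TCEP; top compound concentration 50 μM final, 2% DMSO.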
Usually IC50 stands for the concentration that gives 50% inhibition. For the molecule `CNc1ccnc(Nc2ccc(OC)c(OC[C@@H](C)CN3CCC3)c2)n1` [Compound 943], the concentration for half-maximal inhibition (IC50) fell in the range of 1000 to 10000 nM.
`COc1cnc(Nc2cc(NCC3COC3)cnn2)cc1OCCCN1CCCC1` [Compound 894]: the IC50 is 100 to 1000 nM.
The figure for `CNc1ccnc(Nc2ccc(OC)c(OC[C@@H]3CCN(C4CC4)C3)c2)n1` [Compound 928] is 100 to 1000 nM.
The figure for `CNc1ccnc(Nc2ccc(OC)c(OCCC(C)N3CCC3)c2)n1` (stereo not shown) [Compound 1014] is 1000 to 10000 nM; for `CNc1cc(C)nc(Nc2cnc(OC)c(OC[C@H](O)CN3CCC3)c2)n1` [Compound 963] it is < 100 nM; for `CCN1CC(COc2cc3nc(NC)nc(C4CCN(C)CC4)c3cc2OC)C1` [Compound 951] it is 100 to 1000 nM.
As to `CNc1cc(C)nc(Nc2cc(OCCCN3CCCC3)c3nncn3c2)n1` [Compound 622], the IC50 fell in the range of 1000 to 10000 nM.
Consider `CNCCCOc1cc(Nc2nccc(NC)n2)cnc1OC` [Compound 917], for which the concentration for half-maximal inhibition (IC50) fell in the range of 1000 to 10000 nM.
As for `CNc1cc(C2CCN([C@H]3CCOC3)CC2)c2cc(OC)c(OCCCN3CCCC3)cc2n1` [Compound 867], the figure is < 100 nM.
For `CNc1nc2cc(OCCCN3CCCC3)c(OC)cc2cc1Cl` [Compound 903], the IC50 was 1000 to 10000 nM.
As for `CNc1cc(C)nc(Nc2ccc(OC)c(CNCCN(C)C)c2)n1` [Compound 990], the figure is < 100 nM.
The figure for `CCN1CC[C@@H](COc2cc(Nc3nccc(NC)n3)ccc2OC)C1` [Compound 927] is 100 to 1000 nM.
The figure for `COc1cc2c(C3CCN(C)CC3)nc(N3CCCC3)nc2cc1OCCCN1CC(O)C1` [Compound 950] is 100 to 1000 nM.
For `CNC(=O)N1CC(CNc2cc(C)nc(Nc3cnc(OC)c(OCCCN4CCCC4)c3)n2)C1` [Compound 888], the 50% inhibitory concentration (IC50) is 100 to 1000 nM.
As for `COc1cc2c(C3CCN(C)CC3)cc(N3CCCC3)nc2cc1OCCCN1CCCC1` [Compound 625], the figure is < 100 nM; as for `CNc1cc(C)nc(Nc2ccc(OC)c(OC[C@H](O)CNC3CCC3)c2)n1` [Compound 962], 100 to 1000 nM.
As for `COc1cc2cc(C#N)c(C)nc2cc1OCCCN1CCCC1` [Compound 895], the figure is > 10000 nM; as for `COc1ccc(Nc2nc(C)cc(C3CCOCC3)n2)cc1OCCCN1CCCC1` [Compound 870], > 10000 nM; as for `CNc1ccnc(Nc2ccc(OC)c(OCC(C)(O)CN3CCC3)c2)n1` (stereo not shown) [Compound 1005], 1000 to 10000 nM.
As for `CNCCNCc1cc(Nc2nc(C)cc(NC)n2)ccc1OC` [Compound 964], the figure is 100 to 1000 nM; as for `CNc1cc(C)nc(Nc2ccc(OC)c(C#CCN3CCOCC3)c2)n1` [Compound 904], > 10000 nM.
Consider `CNc1ccnc(Nc2cnc(OC)c(OC[C@@H]3CCN(C)C3)c2)n1` [Compound 912], for which the half-inhibitory concentration (IC50) fell in the range of 100 to 1000 nM.
Take `CCN1CC(COc2cc(Nc3cccn4cnnc34)ncc2OC)C1` [Compound 620]: the IC50 is > 10000 nM.
As for `CNC(=O)CCNc1cc(C)nc(Nc2cnc(OC)c(OCCCN3CCCC3)c2)n1` [Compound 887], the figure is 100 to 1000 nM; as for `CNc1cc(C)nc(Nc2ccc(OC)c(OC[C@H](O)CN3CC(C)C3)c2)n1` [Compound 985], 100 to 1000 nM; as for `CNc1ccnc(Nc2cnc(OC)c(OCCCN3CCC3)c2)n1` [Compound 914], 100 to 1000 nM.
As to `CCNc1cc(C2CCOCC2)c2cc(OC)c(OCCCN3CCCC3)cc2n1` [Compound 865], the IC50 is < 100 nM.
The figure for `CNCCC(C)Oc1cc(Nc2nccc(NC)n2)ccc1OC` (stereo not shown) [Compound 1011] is 1000 to 10000 nM; for `CNc1nc(C2=CC(C)(C)NC(C)(C)C2)c2cc(OC)c(OCCCN3CCCC3)cc2n1` [Compound 961] it is 1000 to 10000 nM.
As for `CNc1cc(C)nc(Nc2cnc(OC)c(OCCCN3CCC3)c2)n1` [Compound 949], the figure is 100 to 1000 nM; as for `CNc1ccnc(Nc2ccc(OC)c(OC[C@H](O)CN3CCC3)c2)n1` [Compound 908], < 100 nM.
For `CCN1CC[C@@H](COc2cc(Nc3nc(C)cc4[nH]ncc34)ncc2OC)C1` [Compound 947], the IC50 was < 100 nM.
With `CNc1cc(C)nc(Nc2ccc(OC)c(OCCCc3nc(Cl)cn3C)c2)n1` [Compound 891], the concentration for half-maximal inhibition (IC50) was > 10000 nM.
As for `CNc1ccnc(Nc2ccc(OC)c(OC[C@H]3CN(C)CCO3)c2)n1` [Compound 931], the figure is > 10000 nM.
As for `COc1ccc(Nc2nc(C)cc(NCCS(=O)(=O)N(C)C)n2)cc1OCCCN1CCCC1` [Compound 893], the figure is 100 to 1000 nM; as for `CNc1cc(C)nc(Nc2ccc(OC)c(OC[C@H](O)CN3CC(F)C3)c2)n1` [Compound 986], 100 to 1000 nM; as for `CNc1cc(C)nc(Nc2ccc(OC)c(CNCCN3CCC3)c2)n1` [Compound 965], < 100 nM.
The figure for `COc1cc2c(C3CCN([C@H]4CCOC4)CC3)cc(C)nc2cc1OCCCN1CCCC1` [Compound 864] is < 100 nM.
Consider `CNc1ccnc(Nc2ccc(OC)c(OC[C@@H](O)CN3CCC3)c2)n1` [Compound 907], for which the IC50 is 1000 to 10000 nM.
The figure for `CNc1cc(C)nc(Nc2c[nH]c(=O)c(OCCCN3CCCC3)c2)n1` [Compound 621] is > 10000 nM.
For `CNc1nc2cc(OCCCN3CCCC3)c(OC)cc2cc1F` [Compound 897], the concentration for half-maximal inhibition (IC50) was > 10000 nM.
The figure for `CNCC(C)COc1cc(Nc2nccc(NC)n2)ccc1OC` (stereo not shown) [Compound 1009] is 1000 to 10000 nM.
As for `COc1cnc(Nc2cccc3[nH]nnc23)cc1OCCCN1CCCC1` [Compound 619], the figure is > 10000 nM; as for `CNc1cc(C)nc(Nc2cnc(OC)c(OC[C@@H](O)CN3CCCC3)c2)n1` [Compound 881], 100 to 1000 nM; as for `CNc1cc(C)nc(Nc2ccc(CNC(=O)c3ccccc3)c(OC)c2)n1` [Compound 876], > 10000 nM.
The figure for `CNc1ccnc(Nc2ccc(OC)c(OCCC(C)NC)c2)n1` (stereo not shown) [Compound 1016] is 1000 to 10000 nM; for `CNc1cc(C2CCN([C@@H]3CCOC3)CC2)c2cc(OC)c(OCCCN3CCCC3)cc2n1` [Compound 866] it is < 100 nM.
In the case of `CNS(=O)(=O)CCNc1cc(C)nc(Nc2ccc(OC)c(OCCCN3CCCC3)c2)n1` [Compound 892], the IC50 is < 100 nM.
The figure for `CNc1ccnc(Nc2ccc(OC)c(OCC(C)CN3CCC3)c2)n1` (stereo not shown) [Compound 1008] is 100 to 1000 nM.
On to `CNc1cc(C)nc(Nc2ccc(OC)c(OCCCc3nc(Cl)c[nH]3)c2)n1` [Compound 890], for which the IC50 was > 10000 nM.
The figure for `CNc1ccnc(Nc2ccc(OC)c(OC[C@@H]3CNCCO3)c2)n1` [Compound 938] is > 10000 nM; for `CNC(=O)C1CCN(c2cc3nc(NC)cc(C)c3cc2OC)C1` (stereo not shown) [Compound 900] it is > 10000 nM.
Regarding `CNc1cc(C)nc(Nc2cnc(OC)c(OC[C@H](O)CN3CCCC3)c2)n1` [Compound 882], the IC50 lay within 100 to 1000 nM.
The figure for `CCN1CCC(O)(COc2cc(Nc3nccc(NC)n3)ccc2OC)C1` (stereo not shown) [Compound 1006] is 100 to 1000 nM.
The figure for `CNc1cc(C)nc(Nc2cc(OCCCN3CCCC3)c3ncnn3c2)n1` [Compound 623] is 1000 to 10000 nM; for `CNc1ccnc(Nc2cnc(OC)c(OC[C@@H]3CCN(C4CCC4)C3)n2)n1` [Compound 974] it is 100 to 1000 nM.
The figure for `CNC[C@@H](O)COc1cc(Nc2nccc(NC)n2)cnc1OC` [Compound 918] is 1000 to 10000 nM.
Consider `CNc1cc(C)nc(Nc2ccc(OC)c(OC[C@@H](O)CN3CCCC3)c2)n1` [Compound 905], for which the IC50 was 100 to 1000 nM.
Turning to `CNC[C@H](COc1cc(Nc2nccc(NC)n2)ccc1OC)OC` [Compound 921], the IC50 is > 10000 nM.
Consider `COc1cc2cc(F)c(C)nc2cc1OCCCN1CCCC1` [Compound 896], for which the 50% inhibitory concentration (IC50) is > 10000 nM.
The figure for `COc1ncc(Nc2nc(C)cc(NCC3COC3)n2)cc1OC[C@@H](O)CN1CCCC1` [Compound 883] is > 10000 nM; for `CCN1CCO[C@@H](COc2cc(Nc3nccc(NC)n3)ccc2OC)C1` [Compound 932] it is > 10000 nM; for `CNc1cc(C)nc(Nc2ccc(OC)c(C(=O)NCc3ccccc3)c2)n1` [Compound 871] it is > 10000 nM.
The figure for `CNc1ccnc(Nc2ccc(OC)c(OC[C@H](C)CN3CCC3)c2)n1` [Compound 945] is 100 to 1000 nM; for `CNc1ccnc(Nc2ccc(OC)c(OC[C@@H](CN3CCCC3)OC)c2)n1` [Compound 919] it is 1000 to 10000 nM.
For the molecule `CCN1CCO[C@H](COc2cc(Nc3nccc(NC)n3)ccc2OC)C1` [Compound 937], the IC50 was > 10000 nM.
With `CNc1cc(C)nc(Nc2ccc(C(=O)NCc3ccccc3)c(OC)c2)n1` [Compound 877], the half-maximal inhibitory concentration (IC50) is > 10000 nM.
The figure for `COc1ncc(Nc2nc(C)cc(NCC3COC3)n2)cc1OC[C@H](O)CN1CCCC1` [Compound 884] is > 10000 nM; for `CNc1cc(C)nc(Nc2cc(OC[C@@H](O)CN3CCCC3)c(OC)cn2)n1` [Compound 885] it is 1000 to 10000 nM; for `CNc1ccnc(Nc2ccc(OC)c(OC[C@H](CN3CCCC3)OC)c2)n1` [Compound 920] it is 100 to 1000 nM.
The figure for `CNc1cc(C)nc(Nc2ccc(OC)c(OCC(O)CN3CCCC3)c2)n1` (stereo in doubt) [Compound 906, (2S)-1-(2-methoxy-5-[[4-methyl-6-(methylamino)pyrimidin-2-yl]amino]phenoxy)-3-(pyrrolidin-1-yl)propan-2-ol] is < 100 nM; for `CNc1cc(C)nc(Nc2ccc(OC)c(C(=O)NC3CCN(C)CC3)c2)n1` [Compound 873] it is > 10000 nM.
For the molecule `CNc1cc(C)nc(Nc2cc(OCCCN3CCCC3)c3[nH]nnc3c2)n1` [Compound 624], the IC50 is 100 to 1000 nM.
